Results on two molecules are retold here after ChEMBL document CHEMBL1201862, “PubChem BioAssay data set” (2004).

Each structure is given as a SMILES string.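 How tested: cells in 96-well plates exposed to compound for 48 hours at five concentrations. Abbreviation: GI50, concentration required for 50% inhibition of growth.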 The source made the active and inactive calls. No stated cut-off is given here; in the data, active = GI50 up to about 1.1 µM and inactive = higher.

Test systems include KM-20L2; DMS-114; LXFL 529; XF498; RXF 631; DU-145; MDA-MB-435; MDA-MB-231; MDA-N.
Assay in all cases: NCI anticancer screen, dose series, 48 h

As for `CC(SC1=CC(=O)c2c(O)ccc(O)c2C1=O)C(=O)O` (centres undefined), the GI50 was > 51.8 µM (inactive) in the assay with KM-20L2; 19.5 µM (inactive) in the assay with DMS-114; > 35.5 µM (inactive) in the assay on LXFL 529; > 49.9 µM (inactive) with XF498; 56.4 µM (inactive) in the assay on RXF 631.
Turning to `C/C(=N\N=C(/S)N1CCCCCC1)c1cccc[n+]1[O-]`, the GI50 was 0.839 µM (active) in the assay with KM-20L2; 31.5 µM (inactive) in the assay on DU-145; 0.0198 µM (active) with DMS-114; 0.348 µM (active) in the assay with LXFL 529; 5.27 µM (inactive) in the assay with XF498; 9.57 µM (inactive) in the assay on MDA-MB-435. Besides, the GI50 in the assay on MDA-MB-231 was 7.59 µM (inactive); in the assay with RXF 631, 8.59 µM (inactive); in the assay on MDA-N it was 6.47 µM (inactive).
